The results in this text go back to patent US10028961B2, “Therapeutically active compounds and their methods of use” (AGIOS PHARMACEUTICALS, INC., priority 2013, dated 2018).

Molecules are shown by their SMILES. Where two headings read alike, the source gives them in different places.

Assay [1] has as its target IDH1 wt/IDH1 R132H heterodimer (Homo sapiens (Human), UniProt O75874, R132H). The experiment in a line: In vitro assay for IDH1m R132H inhibitors, IDH1 wt/IDH1 R132H heterodimer, NADPH depletion (diaphorase/resazurin). The assay is classed as biochemical. On the procedure:
The following describes the experimental procedures that can be used to obtain data on columns 2 and 4 of Table 4 and column 2 of Table 5.
In the primary reaction, the reduction of α-KG acid to 2-HG is accompanied by a concomitant oxidation of NADPH to NADP. The amount of NADPH remaining at the end of the reaction time is measured in a secondary diaphorase/resazurin reaction in which the NADPH is consumed in a 1:1 molar ratio with the conversion of resazurin to the highly fluorescent resorufin.
The mixture of compound, enzyme, and cofactor is pre-incubated at room temperature for 1 hr prior to the addition of alpha-ketoglutarate. To perform the secondary reaction, 10 uL of 1× buffer containing 36 μg/ml diaphorase and […] resazurin is added to the primary reaction and incubated for a further 5 minutes at 25° C. […] Compounds or compound dilutions are prepared in 100% DMSO concentration and diluted 1:50 into the final reaction. […] IC50s are determined.
IDH1 or IDH2 wildtype (wt) and mutant heterodimers are expressed and purified by methods known in the art. […] Co-expression of IDH1wt-his and IDH1R132C-flag is carried out in sf9 insect cells. Cells (25 g) are resuspended in 250 ml of 50 mM Tirs, 500 mM NaCl, pH7.4, at 4° C. with stirring. Cells are disrupted with 4 passes through an M-Y110 Micro fluidizer (Microfluidics) set to 500 psi, and then centrifuged at 22,000 rcf for 20 min at 4° C. The supernatant is harvested and loaded at 15 cm/h on a Histrap FF 5*1 ml column (GE) which is equilibrated with 50 mM Tirs, 500 mM NaCl, pH7.4. Host cell contaminants are removed by washing the column with equilibration buffer followed by equilibration buffer containing 20 mM imidazole and 60 mM imidazole to baseline. IDH1wt-his homodimer and IDH1wt-his/IDH1R132C-flag are eluted by equilibration buffer containing 250 mM imidazole. Fractions eluted by 250 mM imidazole are pooled together and loaded at 15 cm/h onto a column pre-packed with 10 ml ANTI-FLAG® M2 Affinity Gel (Sigma), the column is equilibrated with 50 mM Tris, 500 mM NaCl, pH7.4. After washing with equilibration buffer, IDH1wt-his/IDH1R132C-flag heterodimer is eluted by equilibration buffer containing flag peptide (0.2 mg/ml). Aliquots of IDH1wt-his/IDH1R132C-flag are flash frozen in liquid N2 and stored at −80° C. Same conditions are used for the purification of IDH1wt-his/IDH1R132H-flag.

Assay [2] has as its system Neurosphere cells (TS603). The experiment in a line: Cellular assay for IDH1m R132H inhibitors, 2-HG by LC-MS in neurosphere cells (TS603). Particulars: 2-HG in media at 48 hours. The class given is cell-based. On the procedure: Cellular Assay for IDH1m R132H Inhibitors.
The following describes the experimental procedures that can be used to obtain data in column 4 of Table 5.
Neurosphere cells (TS603) are grown at 37 C in 5% CO2 in Stem Cell Technologies NeuroCult™ NS-A media supplemented with 1% Primocin, 1% Normocin, 0.0002% Heparin, 20 ng/mL EGF and 10 ng/mL bFGF. Cells are harvested, pelleted and resuspended in Accumax for cell dissociation and counting. Cells are counted and then resuspended in NeuroCult media with 2× heparin, EGF and bFGF at 4 million cells/10 mL media. 100 μl of cell solution are plated in each well of a 96 well with the exception of columns 1 and 12. Columns 1 and 12 contain 200 μL PBS. Compound dose responses are set up at a 2× concentration in Neurocult media without heparin, EGF and bFGF. The final concentration of DMSO is 0.25%. DMSO only control wells are plated in row H. The plates are then placed in the incubator for 48 hours. At 48 hours, 100 μl of media is removed from each well and analyzed by LC-MS for 2-HG concentrations. The cell plate is placed back in the incubator for another 24 hours. At 72 hours post compound addition, 10 mL/plate of Promega Cell Titer Glo reagent is thawed and mixed. The cell plate is removed from the incubator and allowed to equilibrate to room temperature. Then 100 μl of Promega Cell Titer Glo reagent is added to each well of media. The cell plate is then placed on an orbital shaker for 10 minutes and then allowed to sit at room temperature for 20 minutes. The plate is then read for luminescence with an integration time of 500 ms.

Assay [3] has as its system U87MG pLVX-IDH2 R140Q-neo cells. Kind of assay: U87MG pLVX-IDH2 R140Q-neo cell based assay, 2-HG by LC-MS. Particulars: Homo sapiens, U-87 MG.
For a further assay, the target named is IDH2 R140Q (Homo sapiens (Human), UniProt P48735, R140Q). The experiment in a line: In vitro assay for IDH2m R140Q inhibitors, cofactor depletion assay. The class given is biochemical. The following applies: IDH2 R140Q enzyme. From the text:
The following describes the experimental procedures used to obtain data on column 7 of Table 4.
The reaction is terminated by the addition of a second enzyme, diaphorase, and a corresponding substrate, resazurin. Diaphorase reduces resazurin to the highly fluorescent resorufin with the concomitant oxidation of NADPH to NADP, both halting the IDH2 reaction by depleting the available cofactor pool and facilitating quantitation of the amount of cofactor remaining after a specific time period through quantitative production of an easily detected fluorophore.
The test compound is then incubated for one hour at room temperature with the enzyme; before starting the IDH2 reaction with the addition of 10 μl of substrate mix containing 4 μM NADPH and 1.6 mM α-KG in the buffer described above. After a further 16 hours of incubation at room temperature, the reaction is halted and the remaining NADPH measured through conversion of resazurin to resorufin by the addition of 25 μl Stop Mix (36 μg/ml diaphorase enzyme and 60 μM resazurin; in buffer).

Where [4] appears, read: IDH1 wt/R132H heterodimer, NADPH/NADP, not saturated, read-out: IDH1 wt/R132H NADPH/NADP IC50 not saturated.
Where [5] appears, read: IDH1 wt/IDH1 R132H heterodimer, 300 μM NADP (saturated), read-out: IDH1 wt/R132H NADPH/NADP IC50 saturated.

Chain of IDH1 wt/IDH1 R132H heterodimer (O75874 whole entry R132H): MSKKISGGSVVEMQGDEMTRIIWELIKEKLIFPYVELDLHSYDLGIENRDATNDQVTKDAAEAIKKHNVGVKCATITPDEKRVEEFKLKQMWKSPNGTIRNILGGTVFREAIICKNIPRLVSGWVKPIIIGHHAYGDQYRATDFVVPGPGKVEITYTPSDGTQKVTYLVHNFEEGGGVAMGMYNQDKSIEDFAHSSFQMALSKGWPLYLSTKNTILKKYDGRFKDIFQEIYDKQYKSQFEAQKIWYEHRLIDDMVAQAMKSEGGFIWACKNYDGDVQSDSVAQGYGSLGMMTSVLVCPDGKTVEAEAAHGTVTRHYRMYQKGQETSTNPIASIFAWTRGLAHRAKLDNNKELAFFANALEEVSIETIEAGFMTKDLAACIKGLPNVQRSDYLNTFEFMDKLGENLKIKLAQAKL
Chain of IDH1 wt/IDH1 R132H heterodimer (O75874 whole entry, stated change not applied): as the sequence (O75874 whole entry R132H) above, with H132R counted along it
Chain of IDH2 R140Q (P48735 40-452 R140Q): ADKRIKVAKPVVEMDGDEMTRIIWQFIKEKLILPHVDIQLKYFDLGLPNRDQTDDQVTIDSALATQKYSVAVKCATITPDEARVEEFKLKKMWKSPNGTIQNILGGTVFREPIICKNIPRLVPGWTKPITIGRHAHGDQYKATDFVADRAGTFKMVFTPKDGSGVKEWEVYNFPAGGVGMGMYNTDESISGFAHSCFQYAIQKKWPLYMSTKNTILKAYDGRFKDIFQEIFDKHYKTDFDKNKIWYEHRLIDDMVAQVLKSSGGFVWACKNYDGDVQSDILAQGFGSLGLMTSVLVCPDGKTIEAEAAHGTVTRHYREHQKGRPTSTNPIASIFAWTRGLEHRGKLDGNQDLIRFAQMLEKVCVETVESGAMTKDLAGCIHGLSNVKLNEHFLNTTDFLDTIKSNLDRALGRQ

Consider `FC1(F)CCC(Nc2nc(NC3CCC(F)(F)C3)nc(-c3nc(C(F)(F)F)cs3)n2)C1` (centres unmarked) [Compound 148], for which the IC50 (in assay [1] (setting [4]); in assay [2]; in assay [3]; at IDH2 R140Q) was less than 50 nM in each case.
In the case of `CC(F)(F)c1cncc(-c2nc(NC3CC(F)(F)C3)nc(NC3CC(F)(F)C3)n2)n1` [Compound 366], the IC50 (in assay [1] (setting [5]); in assay [2]; in assay [3]; against IDH2 R140Q) was less than 50 nM in each case.
For `CC[C@H](Nc1nc(N[C@@H](CC)C(F)(F)F)nc(-c2cncc(C(F)(F)F)n2)n1)C(F)(F)F` [Compound 339], the IC50 (in assay [1] (setting [5]); in assay [2]; in assay [3]; against IDH2 R140Q) was less than 50 nM throughout.
In the case of `CC[C@H](Nc1nc(N[C@@H](CC)C(F)(F)F)nc(-n2ccc(C(F)(F)F)n2)n1)C(F)(F)F` [Compound 363], the IC50 in assay [1] (setting [5]) is less than 50 nM; in assay [2] it was less than 50 nM; in assay [3] it was 50 to 100 nM; on IDH2 R140Q, 50 to 100 nM.
Regarding `N#CC1(c2cc(Nc3nc(N[C@@H]4CCC(F)(F)C4)nc(-c4ccnc(C(F)(F)F)n4)n3)ccn2)CC1` [Compound 342], the IC50 in assay [1] (setting [5]) was 100 to 1000 nM; in assay [2] it was less than 50 nM; in assay [3], less than 50 nM; on IDH2 R140Q it was less than 50 nM.
With `N#CC1(c2cc(Nc3nc(N[C@H]4CCC(F)(F)C4)nc(-c4cncc(C(F)(F)F)n4)n3)ccn2)CC1` [Compound 373], the IC50 (in assay [1] (setting [5]); in assay [2]; in assay [3]; at IDH2 R140Q) was less than 50 nM each time.
`CC(F)(F)c1cncc(-c2nc(NC3CCC(F)(F)C3)nc(NC3CCC(F)(F)C3)n2)n1` (centres unmarked) [Compound 370]: the IC50 (in assay [1] (setting [5]); in assay [2]; in assay [3]; at IDH2 R140Q) was less than 50 nM throughout.
On to `CC(F)(F)c1cncc(-c2nc(NC3CCC(F)(F)CC3)nc(NC3CCC(F)(F)CC3)n2)n1` [Compound 374], for which the IC50 in assay [1] (setting [5]) was 50 to 100 nM; in assay [2] it was less than 50 nM; in assay [3] it was less than 50 nM; at IDH2 R140Q, less than 50 nM.
Take `FC(F)(F)c1cccc(-c2nc(NCC3CC3(F)F)nc(NCC3CC3(F)F)n2)n1` (centres unmarked) [Compound 354]: the IC50 in assay [1] (setting [5]) is 50 to 100 nM; in assay [2], less than 50 nM; in assay [3], less than 50 nM; against IDH2 R140Q, less than 50 nM.
On to `CC(F)(F)c1cc(Nc2nc(NC3CC(F)(F)C3)nc(-c3cccc(C(F)(F)F)n3)n2)ccn1` [Compound 358], for which the IC50 (in assay [1] (setting [5]); in assay [2]; in assay [3]; at IDH2 R140Q) was less than 50 nM in each case.
Regarding `C[C@@H](Nc1nc(Nc2ccnc(C3(C#N)CC3)c2)nc(-c2cccc(C(C)(F)F)n2)n1)C(F)(F)F` [Compound 348], the IC50 (in assay [1] (setting [5]); in assay [2]; in assay [3]; on IDH2 R140Q) was less than 50 nM throughout.
Turning to `CC(F)(F)c1cccc(-c2nc(Nc3ccnc(C4(C#N)CC4)c3)nc(NC3CC(F)(F)C3)n2)n1` [Compound 372], the IC50 (in assay [1] (setting [5]); in assay [2]; in assay [3]; at IDH2 R140Q) was less than 50 nM each time.
Take `C[C@@H](Nc1nc(Nc2ccnc(-c3ccc(Cl)cc3)c2)nc(-c2cccc(C(F)(F)F)n2)n1)C(F)(F)F` [Compound 364]: the IC50 in assay [1] (setting [5]) is 50 to 100 nM; in assay [2] it was less than 50 nM; in assay [3] it was less than 50 nM; on IDH2 R140Q, less than 50 nM.
For `CC[C@H](Nc1nc(N[C@@H](CC)C(F)(F)F)nc(-c2cccc(C(F)(F)F)n2)n1)C(F)(F)F` [Compound 346], the IC50 (in assay [1] (setting [5]); in assay [2]; in assay [3]; at IDH2 R140Q) was less than 50 nM throughout.
Consider `C[C@H](Nc1nc(Nc2ccnc(C3(C#N)CC3)c2)nc(-c2cccc(C(F)(F)F)n2)n1)C(F)(F)F` [Compound 351], for which the IC50 (in assay [1] (setting [5]); in assay [2]; in assay [3]; against IDH2 R140Q) was less than 50 nM throughout.
Take `C[C@@H](Nc1nc(Nc2ccnc(-c3ccccc3)c2)nc(-c2cccc(C(F)(F)F)n2)n1)C(F)(F)F` [Compound 359]: the IC50 (in assay [1] (setting [5]); in assay [2]; in assay [3]; against IDH2 R140Q) was less than 50 nM each time.
In the case of `FC1(F)CC2(CC(Nc3nc(Nc4ccnc(C(F)(F)F)c4)nc(-c4cncc(C(F)(F)F)n4)n3)C2)C1` [Compound 380], the IC50 in assay [1] (setting [5]) was 100 to 1000 nM; in assay [2] it was less than 50 nM; in assay [3] it was less than 50 nM; at IDH2 R140Q, less than 50 nM.
As for `C[C@@H](Nc1nc(N[C@H](C)C(F)(F)F)nc(-c2ccnc(C(F)(F)F)n2)n1)C(F)(F)F` [Compound 344], the IC50 in assay [1] (setting [5]) is 50 to 100 nM; in assay [2], less than 50 nM; in assay [3], 50 to 100 nM; against IDH2 R140Q, 50 to 100 nM.
As for `FC1(F)CCC(Nc2nc(Nc3ccnc(C(F)(F)F)c3)nc(-c3nc(C(F)(F)F)cs3)n2)C1` (centres unmarked) [Compound 353], the IC50 (in assay [1] (setting [5]); in assay [2]; in assay [3]; against IDH2 R140Q) was less than 50 nM in each case.
In the case of `FC1(F)CC[C@H](Nc2nc(N[C@H]3CCC(F)(F)C3)nc(-c3cncc(C(F)(F)F)n3)n2)C1` [Compound 406], the IC50 (in assay [1] (setting [5]); in assay [2]; in assay [3]; on IDH2 R140Q) was less than 50 nM each time.
Take `C[C@@H](Nc1nc(N[C@H](C)C2CC2)nc(-c2cccc(C(F)F)n2)n1)C1CC1` [Compound 198]: the IC50 (in assay [1] (setting [4]); in assay [2]; in assay [3]; against IDH2 R140Q) was less than 50 nM each time.
Turning to `FC1(F)CCC(Nc2nc(NC3CCC(F)(F)C3)nc(-c3cncc(Cl)n3)n2)C1` (centres unmarked) [Compound 129], the IC50 (in assay [1] (setting [4]); in assay [2]; in assay [3]; at IDH2 R140Q) was less than 50 nM throughout.
For `C[C@@H](Nc1nc(Nc2ccnc(-c3ccc(F)cc3)c2)nc(-c2cccc(C(F)(F)F)n2)n1)C(F)(F)F` [Compound 371], the IC50 (in assay [1] (setting [5]); in assay [2]; in assay [3]; at IDH2 R140Q) was less than 50 nM each time.
